experiment: in vitro; conditions: human, hela cells

SMILES | viability at 28.5 h, 10 µM
CNC(=O)Oc1ccc(C)cc1C(=O)N(C)C [CBK012319] | 111%

same assay, conditions: human, hela cells, % viability

SMILES | viability at 28.5 h, 10 µM
COc1cccc(NC(=O)CCS(=O)(=O)c2cccs2)c1 [CBK071069] | 100%
C/C(CCc1ccccc1)=N\NC(=O)c1ccc(CN2CCOCC2)cc1 [CBK262752] | 99.5%
CCCCNC(=O)NC1CCCC1 [CBK027084] | 101%
COC(=O)N1CCN(C(=O)c2cc(C(C)C)n3ncnc3n2)CC1 [CBK306509] | 85.4%
Cn1nc(C(C)(C)C)cc1C(=O)N1CCNC(=O)C1Cc1ccccc1-c1ccc(F)cc1 (stereo not drawn) [CBK285830] | 101%
COc1ccc(N2CCN(CC(=O)N3CCC(C(N)=O)CC3)CC2)cc1 [CBK268993] | 96.6%
c1ccc2c3c([nH]c2c1)C12CCN(CC1)C(C1CCOC1)N2CC3 (stereo not drawn) [CBK284433] | 88.2%
CCc1nnc(NS(=O)(=O)c2ccc(Nc3ccc4nonc4c3[N+](=O)[O-])cc2)s1 [CBK261445] | 98%
COc1ccc(Cl)cc1NC(=S)NCCc1ccc(S(N)(=O)=O)cc1 [CBK267198] | 85.6%
Cc1ccc(C(=O)NCCN2CCOCC2)c(NCCCn2ccnc2)n1 [CBK076371] | 115%
c1csc(N2CCN(c3nccn4cnnc34)CC2)n1 [CBK305185] | 103%
Cn1nc(CC(=O)Nc2ccccc2C(=O)O)c2ccccc2c1=O [CBK286558] | 88.9%
CC1c2ccsc2CCN1C(=O)c1ccnn1C(C)C (stereo not drawn) [CBK282079] | 89.2%
Cc1nn(CC(=O)N(C)CCn2ccnc2C)c(=O)c2ccccc12 [CBK306536] | 91.8%
O=C(Nc1ccc(-c2nc3ccccc3s2)c(O)c1)c1ccc(-c2ccccc2)cc1 [CBK263979] | 92.9%
CN(Cc1ccc(Br)cc1)C(=O)CNS(=O)(=O)c1cnn(C)c1 [CBK304553] | 82.5%
Cc1cc(NC(=O)c2c(F)cccc2F)nc2c1c(=O)oc1ccccc12 [CBK291115] | 110%
CNCCOCC(O)CSc1ccccc1 (stereo not drawn) [CBK262704] | 100%
COc1cccc2sc(NC(=O)c3ccc4ncsc4c3)nc12 [CBK287365] | 98.5%
O=C(Cn1ccnc1)N1CCCCC1c1nc2ccccc2[nH]1 (stereo not drawn) [CBK283936] | 107%
O=C(c1cnn(-c2ccccc2)c1)N1CCc2[nH]c3ccccc3c2C1 [CBK281853] | 74.1%
COc1ccc(CN2C(=O)CC3(C2=O)C(=O)N(Cc2ccccc2)c2ccc(F)cc23)cc1OC (stereo not drawn) [CBK075174] | 108%

SMILES | viability at 28.5 h, 10 µM
Cc1ccccc1-c1ccc(C(=O)N2CCN(C)CC2)c(NCc2cccnc2)n1 [CBK076125] | 93.2%
Cc1cc(C(=O)NC(C)C2CC3CCC2C3)c2cnn(C(C)C)c2n1 (stereo not drawn) [CBK281652] | 96%
CN(C)CCN(Cc1cccnc1)C(=O)C1(c2ccccc2F)CC1 [CBK282771] | 97%
O=C(NCc1cccnc1)c1ccc(-c2ccoc2)nc1 [CBK156275] | 89.6%
Cc1nnc(SCc2cccc(Oc3ccccc3)c2)n1N [CBK265714] | 104%
CN(C)CCn1c(=O)c2c(ncn2C)n(C)c1=O [CBK012590] | 115%
CC(C)(C)OC(=O)NCc1ccc(CNCc2ccccc2Br)cc1 [CBK056701] | 96.6%
CCCNC(=O)CN(C)Cc1nc(-c2cccc(C(F)(F)F)c2)no1 [CBK305672] | 103%
Cc1[nH]c2ccccc2c1C(=O)CSc1nc2ccccc2o1 [CBK266339] | 100%
O=C(O)/C=C/C(=O)NNC(=O)c1ccccc1Br [CBK261786] | 111%
O=C(O)[C@@H]1CC(O)CN1C(=O)c1ccc2noc(-c3ccccc3)c2c1 (stereo partly drawn) [CBK286736] | 86.1%
O=C(O)c1[nH]c2ccccc2c1C(c1ccc(OC2CCCC2)cc1)c1c(C(=O)O)[nH]c2ccccc12 [CBK267789] | 85.9%
O=C(NCCN1CCOCC1)c1cccc(S(=O)(=O)N2CCCC2)c1 [CBK267316] | 98.2%
Cc1cc(C)c2c(=O)[nH]c(SCC(=O)c3ccc(F)c(C)c3)nc2n1 [CBK266087] | 102%
O=C(O)CC1C(=O)NCCN1Cc1c(F)cccc1Cl (stereo not drawn) [CBK287157] | 88.6%
CCn1c(SCC(=O)Nc2ccc(C(=O)O)cc2)nnc1-c1ccccc1C [CBK265927] | 107%
CC(C)CCNC(=O)N1CCN(c2ccccc2)CC1 [CBK155203] | 101%
COc1ccc(-c2cc(C(F)(F)F)nc(SCC(=O)N3CCN(C)CC3)n2)cc1OC [CBK266194] | 96.1%
CC(=O)Nc1ccc(F)c(NC(=O)NCC2CCOC2)c1 (stereo not drawn) [CBK304388] | 107%
COc1nccnc1OC1CCN(Cc2ccccc2)CC1 [CBK084238] | 103%
O=C(C1=C(O)C(=O)N(CCCN2CCOCC2)C1c1ccccn1)c1ccc(Cl)cc1 (stereo not drawn) [CBK266445] | 112%
O=c1[nH]c2ccncc2c2ccccc12 [CBK016740C] | 92%

SMILES | viability at 28.5 h, 10 µM
O=C(Nc1ccccc1-c1nc2ccccc2[nH]1)c1ccc(S(=O)(=O)N2CCCC2)cc1 [CBK263252] | 88.5%
Cc1ccccc1CN1CCN(CC(=O)Nc2ccccc2C(N)=O)CC1 [CBK270296] | 94.1%
Cc1ccc(C(=O)n2nc(-c3cccnc3)nc2N)cc1 [CBK288172] | 97.4%
O=C(C1CCCCC1)N1CCCC(c2cc3cccnc3[nH]2)C1 (stereo not drawn) [CBK284938] | 98.4%
CN1CCN(C(=O)CNC(=O)CNS(=O)(=O)c2ccccc2)CC1 [CBK268651] | 90.9%
CCCn1ncc(C(=O)NC(CC)c2cn3cccnc3n2)c1C (stereo not drawn) [CBK307640] | 92.9%
Cc1ccc(-c2nc3ncccc3o2)cc1NC(=S)NC(=O)c1ccc(-c2cccc([N+](=O)[O-])c2)o1 [CBK268294] | 102%
Cc1cc(=O)[nH]c(SCC(=O)O)c1C#N [CBK019224] | 116%
Cc1ccc(NC(=O)N(CCC#N)C2CCCCC2)cc1 [CBK156381] | 106%
CCOc1ccc(CNc2ccc(S(N)(=O)=O)cc2)cc1 [CBK267962] | 89.3%
COc1ccccc1CN(Cc1cccnc1)C(=O)NC(C)C(C)C (stereo not drawn) [CBK307672] | 85.2%
O=C(/C=C/c1ccccc1Cl)NCCc1ccccc1 [CBK261794] | 97.5%
COc1ccc(-n2c(SC(CN3CCCCC3)CN3CCCC3=O)nc3ccccc3c2=O)cc1 (stereo not drawn) [CBK264891C] | 87.8%
CCN(CC)Cc1ccc2[nH]c(=O)c(CNCc3ccc(OC)cc3)cc2c1 [CBK132113] | 106%
CNC(=O)c1cccc(NC(=O)c2cc(-c3cccnc3)cnc2NCc2ccc3c(c2)OCO3)c1 [CBK076291] | 89.4%
O=C(O)CCC(=O)Nc1ccccc1C(=O)Nc1ccccc1 [CBK058571] | 92.4%
COc1ccc(C(C)C)cc1-c1cnc2[nH]c(=O)n([C@H](CO)C(C)C)c2n1 [CBK064962] | 96.2%
Cc1nc2c(c(=O)[nH]1)CN(Cc1ccc(Cl)c(Cl)c1)CC2 [CBK283949] | 88.7%
CC(=O)C(C)Oc1ccccc1-n1cccc1 (stereo not drawn) [CBK020334] | 95.9%
CCOc1ccc(S(=O)(=O)N2CCCN(Cc3c[nH]c(C)n3)CC2)c2cccnc12 [CBK063031] | 101%
Clc1ccc(C2NCCS2)c(Cl)c1 (stereo not drawn) [CBK027425] | 102%
CC(NS(=O)(=O)Cc1ccccc1Cl)C(=O)N1CCCCC1 (stereo not drawn) [CBK304928] | 93.7%

SMILES | viability at 28.5 h, 10 µM
O=C(O)c1ccc(-c2ccc(/C=C3/NC(=O)N(c4ccc(Cl)cc4)C3=O)o2)cc1 [CBK077970] | 103%
c1ccc(Oc2ccccc2-c2cc(N3CCN(c4ccccn4)CC3)ncn2)cc1 [CBK091083] | 91.5%
Cc1ccc(N2C(=O)CSC23C(=O)Nc2ccc(Br)cc23)cc1 (stereo not drawn) [CBK093453] | 84.4%
Cn1c(=O)n(CC(=O)NCc2ccc(F)cc2)c2cccnc21 [CBK283908] | 86.6%
Cc1c(Cl)c([N+](=O)[O-])nn1CC(=O)N1CCN(C)CC1 [CBK261719] | 89.4%
Cc1ccc(C)c(-c2nc(-c3cccnc3)no2)c1 [CBK288018] | 102%
Cc1nc2c(c(=O)[nH]1)CCN(Cc1[nH]c3ccc(F)cc3c1C)C2 [CBK283996] | 89.4%
COC(=O)c1ccc(N2CCN(Cc3nc(C)c(C)o3)C(C)C2)cc1 (stereo not drawn) [CBK304903] | 105%
COc1cccc(Nc2cc(-c3ccco3)ncn2)c1OC [CBK090727] | 92.2%
Cc1nc(C(Cc2ccsc2)NC(=O)c2cnn(C)c2)sc1C (stereo not drawn) [CBK284779] | 104%
CCOC(=O)c1c(NC(=O)C2CC(Cl)=CCC2C(=O)O)sc2c1CCCCC2 (stereo not drawn) [CBK264263] | 90.2%
O=C(O)C1Cc2ccccc2CN1C(=O)c1ccccc1 (stereo not drawn) [CBK286628] | 102%
Cc1nn(CC(=O)N2CCCC(C)C2)c(=O)c2cc3occc3n12 (stereo not drawn) [CBK283623] | 91.6%
COc1ccc(C(=O)Nc2cc(C)c3c(=O)oc4ccccc4c3n2)cc1 [CBK287435] | 79.6%
Cn1cc(C(=O)N2CCc3ccccc3C2)c2ccccc21 [CBK200338] | 90%
O=C(c1cccnc1)N1CCN(c2ncccn2)CC1 [CBK144516] | 95.4%
Cc1ccc(OCC(=O)Nc2cccc(C(=O)O)c2)cc1 [CBK287023] | 110%
Cc1nn(CCC#N)c(C)c1[C@@H]1C=C[C@@H](NC(=O)Nc2ccccc2)C1 [CBK289173] | 92.9%
COc1cccc(C(=O)N2CCCC(c3cc4cnccc4[nH]3)C2)c1 (stereo not drawn) [CBK285417] | 104%
Cc1nn(C)c(Cl)c1S(=O)(=O)Nc1cc(NC2CCNC2)c2occc2c1 (stereo not drawn) [CBK067807C] | 99.3%
O=c1c2sc(-c3ccc(F)cc3)cc2ncn1CC1(O)CCCNC1 (stereo not drawn) [CBK306525] | 88.4%
O=C(c1cnccc1C(F)(F)F)N1CCc2ccccc21 [CBK200401] | 112%

same assay, conditions: human, hela cells, % viability, bulk resorufin, single well

SMILES | viability at 28.5 h, 10 µM
Oc1ccc(CN2CCN(c3cccc(Cl)c3)CC2)cc1 [CBK261528] | 109%

From paper PMC12040169 (PLOS Biology, 2025)
